{"source": "patent US20070087330A1", "about": "“Viral deconstruction through capsid assembly in vitro” (priority 2002, published 2007)", "key": {"[1]": {"tested_on": "HBV core polypeptides / HBV capsids", "sequence (P03146 whole entry)": "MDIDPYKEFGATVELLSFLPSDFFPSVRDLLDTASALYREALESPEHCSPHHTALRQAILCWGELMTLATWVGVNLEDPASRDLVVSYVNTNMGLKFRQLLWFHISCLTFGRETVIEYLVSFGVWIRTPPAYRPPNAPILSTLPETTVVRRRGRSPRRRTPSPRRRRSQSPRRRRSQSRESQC", "type": "biochemical", "procedure": "Following translation of HBV core transcript for 30 min, the translation product was diluted in 0.01% Nil(kol buffer and centrifuged on a 10-50% sucrose gradient. The supernatant was removed and the pellet was resuspended in buffer and divided into equal aliquots. To one aliquots was added apyrase (A, top) while the control was incubated in buffe alone (A, bottom). Incubations were done at 25° C. for 90 min. Reaction mixtures were then centrifuged on standard 10-50% sucrose gradients. Fractions were analyzed by SDS-PAGE and autoradiography. In a separate experiment (B) the pellet was isolated and resuspended in identical fashion. To one aliquot was added wheat germ extract as well as unlabeled energy mix. (B, top); to the second aliquot was added wheat germ extract and apyrase (B, botton).\nTo address this, pellet material was isolated by fractionating the products of a 30-min translation of HBV core on a sucrose gradient and resuspending the pellet in buffer. The resuspended pellet was divided into equal aliquots and treated either with aphyase or with buffer for 90 min at 24° C.\nTreatment of the isolated pellet with apyrase and wheat germ extract (FIG. 23B, bottom)."}, "[2]": {"tested_on": "HIV capsid assembly (Gag Pr55)", "experiment": "Cell-free HIV capsid assembly in wheat germ extract, analysed by velocity sedimentation", "type": "biochemical", "method": "Translation of the transcription products was carried out in wheat germ extract containing ^35S methionine (ICN Pharmaceuticals, Costa Mesa, Calif.). Wheat germ was obtained from General Mills. Wheat germ extract was prepared as described by Erickson and Blobel (1983) supra with indicated modifications. Three grams of wheat germ were placed in a mortar and ground in 10 ml homogenization buffer (100 mM K-acetate, 1 mM Mg-acetate, 2 mM CaC12, 40 mM HEPES buffer, pH 7.5 (Sigma Chemicals, St. Louis, Mo.), 4 mM dithiothreitol) to a thick paste. The homogenate was scraped into a chilled centrifuge tube and centrifuged at 4° C. for 10 min at 23,000×g. The resulting supernatant was centrifuged again under these conditions to provide an S23 wheat germ extract. Improved assembly was obtained when the S23 wheat germ extract was further subjected to ultracentrifugation at 50,000 rpm in the TLA 100 rotor (100,000×g) (Beckman Instruments, Palo Alto, Calif.) for 15 min at 4° C. and the supernatant used for in vitro translation. […] This supernatant is referred to herein as a “high speed wheat germ extract supernatant”. Reactions were performed as previously described (Lingappa, J. R., et al., J. Cell. Biol. (1984) 125:99-111), except for modifications noted below.\nA 25 μl wheat germ transcription/translation reaction mixture contained: 5 μl Gag transcript, 5 μl ^35—S Energy Mix 5× stock (Sigma Chemical Co., St. Louis, Mo.), 2.5 μl Compensating Buffer (Sigma Chemical Co.), 1.0 μl 40 mM MgAcetate (Sigma Chemical Co.), 2.0 μl 125 μM Myristoyl CoA (made up in 20 mM Tris Acetate, pH 7.6; Sigma Chemical Co.), 3.75 μl 20 mM Tris Acetate buffer, […] (U.S. Biochemicals; Cleveland, Ohio), 0.25 μl creatine kinase (4 mg/ml stock in 50% glycerol, 10 mM Tris Acetate; Boehringer Mannheim, Indianapolis, Ind.), 0.25 μl bovine tRNA (10 mg/ml stock; Sigma Chemical Co.), and 0.25 μl RNAse Inhibitor (20 units/50; Promega). […]\nThe purpose of this experiment was to use the cell-free system for detecting HIV assembly intermediates that would be otherwise difficult or impossible to detect. A continuously labeled cell-free reaction was analyzed by velocity sedimentation. […] Upon completion of the cell-free reaction, the products were diluted into 1% NP40 sample buffer on ice, and were analyzed by velocity sedimentation on 13 ml 15-60% sucrose gradients. Fractions were collected from the top of each gradient, and the amount of radiolabeled Pr55 protein in each fraction was determined and expressed as percent of total Pr55 protein present in the reaction. The calculated positions of 10S, 80S, 150S, 500S, and 750S complexes are indicated with markers above the figures (see FIG. 3A). […]"}}, "data": [{"compound": "CC[C@H]1CN2CCc3cc(OC)c(OC)cc3[C@@H]2C[C@@H]1C[C@H]1NCCc2cc(OC)c(OC)cc21", "note": "[emetine]", "values": [{"measurement": "Effect on results of treating the isolated pellet with energy substrates or apyrase", "setting": "[1]; protein synthesis inhibitor added", "value": "did not affect"}]}, {"compound": "O=C(O)CN(CCN(CC(=O)O)CC(=O)O)CC(=O)O", "note": "[EDTA]", "values": [{"measurement": "Effect on relative distribution of labeled core polypeptides in top, middle and pellet regions", "setting": "[1]; 10 mM, translation products treated", "value": "had no effect"}]}, {"compound": "apyrase", "values": [{"measurement": "A (material in fractions of assembly intermediate complex A)", "setting": "[2]; radiolabeled Pr55 in 10S complex A, apyrase added post-translationally, detergent cotranslationally", "value": 2851}, {"measurement": "B/C (material in fractions of assembly intermediate complexes B and C)", "setting": "[2]; radiolabeled Pr55 in 80S/150S complexes B and C, apyrase added post-translationally, detergent cotranslationally", "value": 5999}, {"measurement": "Final Capsid (material in fractions of the completed capsid)", "setting": "[2]; radiolabeled Pr55 in 750S completed capsid position, apyrase added post-translationally, detergent cotranslationally", "value": 133}, {"measurement": "Effect of treatment on assembly intermediates", "setting": "[2]; velocity sedimentation, compared with the untreated reaction", "value": "accumulation of additional material in complexes B and C"}, {"measurement": "Effect of treating the isolated pellet material", "setting": "[1]; pellet of a 30-min translation, 90 min at 24° C.", "value": "release of completed capsids from the pellet"}]}]}
